Reference: publication PMC2929646 (Nutrition research (New York, N.Y.), 2010)
Where two headings read alike, the source gives them in different places. Each block holds one molecule with its values, some of them ahead of it.

Legend:
Caco-2 cells [1] = conditions: cited from earlier work
U937 cells = conditions: cited from earlier work
lipase = conditions: cited from earlier work
[2] = test system: human histolytic lymphoma U937 cells; conditions: cited from earlier work
rat squalene epoxidase = conditions: relative to EGCG; cited from earlier work
[3] = cited from earlier work
[4] = cited from earlier work; remark: listed apart in the source
[5] = test system: Caco-2 human intestinal cells; experiment: Parallel accumulation and retention experiment in Caco-2 monolayers; assay type: in vitro ADME; conditions: after 3 h accumulation, 1 h in catechin/dimer-free PBS; mean ± SEM, n=4
[6] = Stability in cell-free experimental media; assay type: physicochemical; conditions: cell-free media (pH 5 PBS), 37°C, media 5 (EGCG), media 2 (dimers), mean ± SEM, n=4
Caco-2 monolayers [7] = conditions: cited from earlier work
Caco-2 monolayers [8] = conditions: cited from earlier work; remark: listed apart in the source
[9] = test system: fibrosarcoma HT1080 cells; conditions: cited from earlier work
[10] = test system: Caco-2 human intestinal cells (TC7 clone); experiment: Accumulation of catechin monomers and auto-oxidation dimers by Caco-2 monolayers
Caco-2 cells [11] = conditions: media containing 50 µM ECG; cited from earlier work

Molecule: Oc1cc(O)c2c(c1)O[C@H](c1cc(O)c(O)c(O)c1)[C@H](O)C2 [EGC, (−)-epigallocatechin]
3 h accumulation (Caco-2 cells [1]): 0.1–0.5 nmol/mg protein

Molecule: O=C(O[C@@H]1Cc2c(O)cc(O)cc2O[C@@H]1c1cc(O)c(O)c(O)c1-c1c([C@H]2Oc3cc(O)cc(O)c3C[C@H]2OC(=O)c2cc(O)c(O)c(O)c2)cc(O)c(O)c1O)c1cc(O)c(O)c(O)c1 [THSN A]
inhibition of growth compared with EGCG (U937 cells): more effective at inhibiting the growth of U937 cells than EGCG
inhibition of lipase compared with EGCG (lipase): more effective inhibitor of lipase than EGCG
induction of apoptosis [2]: induced apoptosis
IC50 value, fold lower than EGCG (rat squalene epoxidase): 5 ×

1 h Retention, Absolute [5]: 7.08 ± 2.2 pmol/well
Stability over 3 h (percent of initial concentration) [6]: 100 ± 0.36%
Molecule: theasinensins (THSNs) A/D [THSNs A/D]
Fe^2+ chelation activity compared with EGCG [3]: equal to or greater than EGCG
O2^•− scavenging activity compared with EGCG [4]: equal to or greater than EGCG

Molecule: Oc1cc(O)c2c(c1)O[C@H](c1ccc(O)c(O)c1)[C@@H](O)C2 [(+)-C, (+)-catechin]
membrane adsorption (Caco-2 monolayers [7]): 0.15–0.2 % transmembrane resistance, Ω cm^2
apparent apical → basolateral permeability (Caco-2 monolayers [8]): 0.8 ×10⁻⁶ cm/s

Molecule: O=C(O[C@@H]1Cc2c(O)cc(O)cc2O[C@@H]1c1cc(O)c(O)c(O)c1-c1c([C@H]2Oc3cc(O)cc(O)c3C[C@H]2OC(=O)c2cc(O)c(O)c(O)c2)cc(O)c(O)c1O)c1cc(O)c(O)c(O)c1 [THSN D]
inhibition of invasive activity compared with EC, EGC and EGCG [9]: better inhibitor of the invasive activity of fibrosarcoma HT1080 cells than EC and EGC, but was less effective than EGCG
induction of apoptosis compared with EGCG [2]: more effective than EGCG

Molecule: Oc1cc(O)c2c(c1)O[C@H](c1ccc(O)c(O)c1)[C@@H](O)[C@@H]2c1c(O)cc(O)c2c1O[C@H](c1ccc(O)c(O)c1)[C@@H](O)C2 [procyanidin dimer B3, (+)-C-(4α→8)-(+)-C]
apparent apical → basolateral permeability (Caco-2 monolayers [8]): 2 ×10⁻⁶ cm/s

net accumulation at 3 h (amount per mg protein) ([10]; 37°C, pH 5 PBS, media from EGCG + EGC (media 3, 6)): 1.89 ± 0.15 nmol/mg
Three h accumulation (range over monomer media) ([10]; 3 h, range over the media that contain the monomer): 1.24–1.35%
Stability over 3 h (percent of initial concentration) [6]: 91.8 ± 6.4%
Molecule: O=C(O[C@@H]1Cc2c(O)cc(O)cc2O[C@@H]1c1cc(O)c(O)c(O)c1)c1cc(O)c(O)c(O)c1 [EGCG, (−)-epigallocatechin gallate]
3 h accumulation (Caco-2 cells [1]; previously reported by the authors): 0.2–2.5 nmol/mg protein

Molecule: O=C(O[C@@H]1Cc2c(O)cc(O)cc2O[C@@H]1c1ccc(O)c(O)c1)c1cc(O)c(O)c(O)c1 [ECG, (−)-epicatechin gallate]
1 h accumulation (Caco-2 cells [11]): roughly 3 nmol/mg protein
